From patent publication US3954793A, “1-(2-Propynyl)-1 H-indazole compounds” (priority 1973, dated 1976)

Assays:
[1] = system: Swiss albino, white male mice; assay: acute toxicity and synergism of acute toxicity in mice; type: in vivo; settings: for number of mice dead, with Dimetilan: 48 hours; for number of mice dead, with Dimetilan / number of mice dead, synergist alone: eight mice; for number of mice dead, with GS 13005: GS 13005 71 + synergist 213 mg/kg; for number of mice dead, with Methadone: Methadone 32 + synergist 215 mg/kg; for number of mice dead, with Secobarbital: Secobarbital 90 + synergist 215 mg/kg; for number of mice dead, synergist alone: synergist 1000 mg/kg i.p., Dimetilan 0, 72 hours
Method in brief: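 Male Swiss albino mice (23 to 27 g, five to six weeks), eight per dose, dosed intraperitoneally in corn oil: dimetilan alone at 4 to 32 mg per kg, synergists alone at 1000 mg/kg with deaths counted at 72 hours. For synergism, synergist given 1 hour before insecticide, lethality observed for at least 6 hours.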

[2] = system: IN/WHO strain house flies; assay: topical application, percent kill after 24 hours, susceptible IN/WHO strain; type: in vivo, female); settings: for percent kill after 24 hours, with Diazinon: Diazinon 0.03 + synergist 0.15 μg/fly; for percent kill after 24 hours, synergist alone (GS 13005 part of Table XXXI): GS 13005 0, synergist 1 μg/fly; for percent kill after 24 hours, synergist alone: insecticide 0, synergist 1 μg/fly
Method in brief: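 Insecticide plus synergist in acetone, 1.0 μl applied to the thorax of CO2-anesthetized 3-to-5-day-old female IN/WHO house flies, doses in μg/fly. Flies held 10 per dish, 3-5 dishes per treatment, with skim milk. Percent mortality scored after 24 h.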

male mice = assay: extension of sleeping time of depressant drugs by synergists; type: in vivo, male mice (Swiss albino white); settings: for Mean Sleeping Time, Noludar / Relative Sleeping Time, Noludar: Noludar 110 mg/kg; for Relative Sleeping Time, Noludar / Relative Sleeping Time, Secobarbital: treated/control; for Mean Sleeping Time, Secobarbital / Relative Sleeping Time, Secobarbital: Secobarbital 37 mg/kg
Method in brief: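 Swiss albino male mice (~38 days, 25-30 g) given synergist at 74.0 or 110.0 mg/kg in corn oil 1 h before Secobarbital 37.0 mg/kg or Noludar 110.0 mg/kg in water. Sleeping time measured from drug dosing to righting-reflex recovery; relative sleeping time = treated ÷ drug-only control.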

[3] = Dimetilan 8 + synergist 240 mg/kg i.p.
[4] = synergist 110 mg/kg one hour prior
[5] = GS 13005 0.10 + synergist 0.50 μg/fly
[6] = Dimetilan 8 + synergist 80 mg/kg i.p.
[7] = Mobam 0.20 + synergist 1 μg/fly
[8] = synergist 74 mg/kg one hour prior

Structure (SMILES) | number of mice dead, with Dimetilan [1, 3] | Mean Sleeping Time, Noludar (male mice; [4]) [min] | Relative Sleeping Time, Noludar (male mice; synergist 110 mg/kg) | Mean Sleeping Time, Secobarbital (male mice; [4]) [min] | Relative Sleeping Time, Secobarbital (male mice; synergist 110 mg/kg) | number of mice dead, with GS 13005 [1] | number of mice dead, with Methadone [1] | number of mice dead, with Secobarbital [1] | number of mice dead, synergist alone [1] | percent kill after 24 hours, with Diazinon [2] [%] | percent kill after 24 hours, synergist alone (GS 13005 part of Table XXXI) [2] [%] | percent kill after 24 hours, with GS 13005 [2, 5] [%] | percent kill after 24 hours, synergist alone [2] [%] | number of mice dead, with Dimetilan [1, 6] | percent kill after 24 hours, with Mobam [2, 7] [%] | Mean Sleeping Time, Secobarbital (male mice; [8]) [min] | Relative Sleeping Time, Secobarbital (male mice; synergist 74 mg/kg) | other results
C#CCOCc1cc(Cl)c(Cl)cc1Cl [II-F] | 0 | 38 | 1.3 | 46 | 1.0 |  |  |  |  |  |  |  |  |  |  |  |  | percent mortality 24 hours, with Mobam ([2]; Mobam 0.13 μg/fly, synergist/insecticide 0.5/1): 3%; percent mortality 24 hours, with Mobam ([2]; Mobam 0.13 μg/fly, synergist/insecticide 1/1): 10%; percent mortality 24 hours, with Mobam ([2]; Mobam 0.13 μg/fly, synergist/insecticide 2/1): 0%; percent mortality 24 hours, with Mobam ([2]; Mobam 0.13 μg/fly, synergist/insecticide 5/1): 23%; percent mortality 24 hours, with Mobam ([2]; Mobam 0.25 μg/fly, synergist/insecticide 0.5/1): 33%; percent mortality 24 hours, with Mobam ([2]; Mobam 0.25 μg/fly, synergist/insecticide 1/1): 57%; percent mortality 24 hours, with Mobam ([2]; Mobam 0.25 μg/fly, synergist/insecticide 2/1): 27%; percent mortality 24 hours, with Mobam ([2]; Mobam 0.25 μg/fly, synergist/insecticide 5/1): 73%; percent mortality 24 hours, with Mobam ([2]; Mobam 0.50 μg/fly, synergist/insecticide 0.5/1): 70%; percent mortality 24 hours, with Mobam ([2]; Mobam 0.50 μg/fly, synergist/insecticide 1/1): 83%; percent mortality 24 hours, with Mobam ([2]; Mobam 0.50 μg/fly, synergist/insecticide 2/1): 80%; percent mortality 24 hours, with Mobam ([2]; Mobam 0.50 μg/fly, synergist/insecticide 5/1): 97%; percent mortality 24 hours, with Mobam ([2]; Mobam 1.0 μg/fly, synergist/insecticide 0.5/1): 100%; percent mortality 24 hours, with Mobam ([2]; Mobam 1.0 μg/fly, synergist/insecticide 1/1): 93%; percent mortality 24 hours, with Mobam ([2]; Mobam 1.0 μg/fly, synergist/insecticide 2/1): 93%; percent mortality 24 hours, with Mobam ([2]; Mobam 1.0 μg/fly, synergist/insecticide 5/1): 100%
C#CCOCc1ccccc1[N+](=O)[O-] [II-P, 2-nitrobenzyl 2-propynyl ether] | 0 | 44 | 1.5 | 46 | 1.0 | 6 | 0 | 0 | 2 | 30 | 0 | 96 | 0 |  |  |  |  | percent kill after 24 hours, with GS 13005 ([2]; GS 13005 0.05 + synergist 0.25 μg/fly): 10%; percent kill after 24 hours, with GS 13005 ([2]; GS 13005 0.10 + synergist 0.125 μg/fly): 69%; percent kill after 24 hours, with GS 13005 ([2]; GS 13005 0.10 + synergist 0.25 μg/fly): 85%
C#CCOCc1c(Cl)cccc1[N+](=O)[O-] [II-K] | 6 | 75 | 2.4 | 44 | 2 | 3 | 2 | 1 | 1 |  | 10 | 100 | 10 | 0 | 100 | 48 | 1.5 | 24 hour percent mortality, Baygon with five parts II-K ([2]; Baygon 0.125 μg/fly, five parts synergist): 83%; 24 hour percent mortality, Bidrin with five parts II-K ([2]; Bidrin 0.063 μg/fly, five parts synergist): 0%; 24 hour percent mortality, Bidrin with five parts II-K ([2]; Bidrin 0.13 μg/fly, five parts synergist): 57%; 24 hour percent mortality, Dimetilan with five parts II-K ([2]; Dimetilan 0.031 μg/fly, five parts synergist): 7%; 24 hour percent mortality, Dimetilan with five parts II-K ([2]; Dimetilan 0.063 μg/fly, five parts synergist): 70%; 24 hour percent mortality, Dimetilan with five parts II-K ([2]; Dimetilan 0.13 μg/fly, five parts synergist): 100%; 24 hour percent mortality, Gardona with five parts II-K ([2]; Gardona 0.031 μg/fly, five parts synergist): 63%; 24 hour percent mortality, Gardona with five parts II-K ([2]; Gardona 0.063 μg/fly, five parts synergist): 100%; 24 hour percent mortality, HRS 1422 with five parts II-K ([2]; HRS 1422 0.125 μg/fly, five parts synergist): 77%; 24 hour percent mortality, Pyrolan with five parts II-K ([2]; Pyrolan 0.063 μg/fly, five parts synergist): 7%; 24 hour percent mortality, Pyrolan with five parts II-K ([2]; Pyrolan 0.13 μg/fly, five parts synergist): 40%; 24 hour percent mortality, Pyrolan with five parts II-K ([2]; Pyrolan 0.25 μg/fly, five parts synergist): 80%
C#CCON=C(C)c1ccc(Cl)cc1 [I-D] | 6 | 58 | 1.5 | 56 | 1.7 |  |  |  |  | 50 |  |  | 0 | 1 | 92 | 62 | 1.9 | percent kill after 24 hours, with Mobam ([2]; Mobam 0.05 + synergist 0.25 μg/fly): 8%; percent kill after 24 hours, with Mobam ([2]; Mobam 0.10 + synergist 0.50 μg/fly): 20%
